# Source: PMC4546510 (ACS chemical biology, 2015)
# Like-named read-outs stand apart in the source and are kept apart here.
# Columns and labels:
# [1] = biological target: full-length NS3 (helicase) (Hepatitis C virus genotype 1a, UniProt P26664); type: biochemical
# [2] = tested on: HCVsg 1b(con1)-Rluc replicon; assay: microbe, parasite or virus in culture; type: cell-based, hepatitis C virus genotype 1b (con1); settings: read-out: EC50 (concentration needed to reduce cellular HCVsg 1b(con1)-Rluc replicon content by 50%)
# Cell viability assay = type: cell-based; settings: human
# [3] = tested on: HCVsg 1b(con1)-Rluc replicon; type: cell-based, hepatitis C virus genotype 1b; settings: combined with HPI; for Interaction with HPI (deviation from additive effects): Prichard & Shipman definitions; for Volume under the synergy plot (difference from Bliss additivity): MacSynergy II, 95% confidence
# Huh7.5 cell viability = assay: Cell viability assay; type: cell-based
# HCVsg 2a(JFH1) replicon [4] = assay: HCVsg 2a; type: cell-based, hepatitis C virus genotype 2a (JFH1); settings: Renilla luciferase reporter
# [5] = tested on: subgenomic dengue virus replicon (DENVsg 2); assay: Dengue virus subgenomic replicon assay in BHK-21 cells; type: cell-based, dengue virus strain 2; settings: Renilla luciferase-tagged replicon
# HCVsg 2a(JFH1) replicon [6] = assay: Colony formation assay, Huh7.5 cells with HCVsg 2a; type: cell-based, hepatitis C virus genotype 2a; settings: genotype 2a replicon, G418 selection
# [7] = tested on: HCVsg 1b(con1)-Rluc replicon; type: cell-based, hepatitis C virus genotype 1b
# scNS4A-NS3 Q526A = assay: NS3 depsipeptide cleavage; type: biochemical, hepatitis C virus genotype 1a
# scNS4A-NS3 H528A = assay: NS3 depsipeptide cleavage; type: biochemical, hepatitis C virus genotype 1a
# scNS4A-NS3 V524A = assay: NS3 depsipeptide cleavage; type: biochemical, hepatitis C virus genotype 1a; settings: Val524 mutation
# [8] = biological target: recombinant full-length NS3 not fused to NS4A (Hepatitis C virus genotype 1a, UniProt P26664); assay: NS3 depsipeptide cleavage; type: biochemical; settings: in the presence and absence of NS4A
# [9] = tested on: BHK DENV-Rluc cell viability
# [10] = tested on: HCVsg 1b(con1) replicon harboring R155K; settings: 3 days
# [11] = tested on: HCVsg 1b(con1) replicon harboring the R155K and V36A mutations; settings: 3 days
# [12] = Hepatitis C virus, Huh7.5, 72 h
structure (smiles),measurement,setting,value
CC(C)(C)NC(=O)N[C@H](C(=O)N1C[C@H]2[C@@H]([C@H]1C(=O)NC(CC1CCC1)C(=O)C(N)=O)C2(C)C)C(C)(C)C (some centres unmarked) [Boceprevir],Inhibition of NS3 in an MBHA,[1],do not inhibit
same,EC50,[2]; [12],0.64 ± 0.1 µM
same,CC50,Cell viability assay; replicon-bearing Huh7.5 cells,> 100 µM
same,Interaction with HPI (deviation from additive effects),[3],no significant deviations from additive effects
Cc1ccc2nc(-c3ccc4nc(-c5ccc(NC(=O)c6cc(C(F)(F)F)cc(C(F)(F)F)c6)cc5)sc4c3)sc2c1S(=O)(=O)O.N [HPI],Inhibition of NS3 in an MBHA,[1]; full-length NS3,inhibits full-length NS3 in an MBHA
same,IC50,"[1]; read-out: IC50, molecular beacon-based helicase assay, NS3-catalyzed DNA unwinding, normalized initial velocities",6 ± 2 µM
same,EC50,"[2]; Huh7.5 cells, 72 hours, relative to DMSO",15 ± 4 µM
same,Effect on viability of cells containing HCVsg 1b(con1) or HCVsg 2a(JFH1),Huh7.5 cell viability; concentrations up to 100 μM,did not affect the viability
same,CC50,"Huh7.5 cell viability; read-out: CC50 (concentration needed to reduce cell viability by 50%), Huh7.5 cells",> 100 µM
same,Activity against the HCVsg 2a(JFH1) replicon,HCVsg 2a(JFH1) replicon [4],little activity
same,Antiviral activity on subgenomic dengue virus replicon,[5],no antiviral activity
same,Antiviral activity in colony-formation assay,HCVsg 2a(JFH1) replicon [6],some antiviral activity
same,Change in sensitivity of the cell line to the compound after selection,[7]; incubated with HPI twice as long as 3 weeks (6 weeks),≤ 2 fold
same,Sensitivity of cells that became resistant to telaprevir,"[7]; telaprevir-selected cells, data not shown",retained sensitivity
same,Effect of substitution on ability to inhibit the NS3 protease,scNS4A-NS3 Q526A,neither the Q526A nor H528A substitutions influenced
same,Effect of substitution on ability to inhibit the NS3 protease,scNS4A-NS3 H528A,neither the Q526A nor H528A substitutions influenced
same,Effect of mutation on ability to inhibit NS3-catalyzed peptide cleavage,scNS4A-NS3 V524A,do not affect
same,Amount needed to inhibit NS3-catalyzed peptide cleavage versus scNS4A-NS3,[8],considerably more HPI was needed
same,"Effect on cell viability, dengue replicon cells",[9],no effect on cell viability
same,Activity on telaprevir-resistant replicon versus HCVsg 1b(con1) replicon,[10],equally active
same,Activity on telaprevir-resistant replicon versus HCVsg 1b(con1) replicon,[11],equally active
CCC[C@H](NC(=O)[C@@H]1[C@H]2CCC[C@H]2CN1C(=O)[C@@H](NC(=O)[C@@H](NC(=O)c1cnccn1)C1CCCCC1)C(C)(C)C)C(=O)C(=O)NC1CC1 [Telaprevir],Inhibition of NS3 in an MBHA,[1],do not inhibit
same,EC50,[2]; [12],0.81 ± 0.4 µM
same,CC50,Cell viability assay; replicon-bearing Huh7.5 cells,45 ± 4 µM
same,Sensitivity of cells that were incubated with HPI,"[7]; HPI-selected cells, data not shown",retained sensitivity
same,Resistance after incubation with the compound,[7]; incubated with telaprevir for 3 weeks,became resistant
same,Interaction with HPI (deviation from additive effects),[3],no significant deviations from additive effects
C=C[C@@H]1C[C@]1(NC(=O)[C@@H]1C[C@@H]2CN1C(=O)[C@H](C(C)(C)C)NC(=O)O[C@@H]1C[C@H]1CCCCCc1nc3ccc(OC)cc3nc1O2)C(=O)NS(=O)(=O)C1CC1 [Grazoprevir],EC50,[2]; [12],0.00076 ± 0.00013 µM
same,CC50,Cell viability assay; replicon-bearing Huh7.5 cells,54 ± 5 µM
same,Volume under the synergy plot (difference from Bliss additivity),[3],101 μM^2%
CC(C)(C)OC(=O)N[C@H]1CCCCC/C=C\[C@@H]2C[C@@]2(C(=O)NS(=O)(=O)C2CC2)NC(=O)[C@@H]2C[C@@H](OC(=O)N3Cc4cccc(F)c4C3)CN2C1=O [Danoprevir],Inhibition of NS3 in an MBHA,[1]; full-length NS3,do not inhibit
same,EC50,[2]; [12],0.002 ± 0.0005 µM
same,CC50,Cell viability assay,100 µM
same,Volume under the synergy plot (difference from Bliss additivity),[3],17 μM^2%
same,Interaction with HPI (deviation from additive effects),[3],"Minor, insignificant synergy"
